The source of these data is publication PMC8426393, “Interactions of anti-COVID-19 drug candidates with hepatic transporters may cause liver toxicity and affect pharmacokinetics” (Scientific Reports, 2021).

Entries after “also recorded” stand apart in the source; their conditions may differ.

The target in one data set is T1, MATE1/SLC47A1 (Homo sapiens, UniProt Q96FL8).
T1 construct: expressed in transfected cells; host or cells: MDCKII cells, lentiviral transduction
T1 sequence (Q96FL8 1-570): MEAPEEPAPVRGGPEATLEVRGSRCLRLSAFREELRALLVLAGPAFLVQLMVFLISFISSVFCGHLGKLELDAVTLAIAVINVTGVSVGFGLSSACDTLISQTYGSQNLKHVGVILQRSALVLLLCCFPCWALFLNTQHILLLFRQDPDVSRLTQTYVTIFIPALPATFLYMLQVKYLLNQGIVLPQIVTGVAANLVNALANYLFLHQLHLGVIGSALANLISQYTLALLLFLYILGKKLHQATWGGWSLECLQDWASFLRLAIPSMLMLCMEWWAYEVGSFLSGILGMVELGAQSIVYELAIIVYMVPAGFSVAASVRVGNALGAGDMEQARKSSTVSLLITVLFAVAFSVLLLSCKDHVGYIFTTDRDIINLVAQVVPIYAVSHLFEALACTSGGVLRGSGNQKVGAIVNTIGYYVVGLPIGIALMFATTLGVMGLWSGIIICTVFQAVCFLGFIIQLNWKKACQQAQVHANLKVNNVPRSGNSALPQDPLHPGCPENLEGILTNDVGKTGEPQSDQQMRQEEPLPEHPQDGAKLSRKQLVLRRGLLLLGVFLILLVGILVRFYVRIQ
Description: MATE1-dependent metformin uptake in MATE1-overexpressing MDCKII cells. Conditions: metformin 10 µM, 10 min, 37 °C, MDCKII cells. The data set is classed as cell-based.

The next data set has as its target T2, OCT1/SLC22A1 (Homo sapiens, UniProt O15245).
T2 construct: expressed in transfected cells; host or cells: HEK-293 cells, lentiviral transduction
T2 sequence (O15245 1-554): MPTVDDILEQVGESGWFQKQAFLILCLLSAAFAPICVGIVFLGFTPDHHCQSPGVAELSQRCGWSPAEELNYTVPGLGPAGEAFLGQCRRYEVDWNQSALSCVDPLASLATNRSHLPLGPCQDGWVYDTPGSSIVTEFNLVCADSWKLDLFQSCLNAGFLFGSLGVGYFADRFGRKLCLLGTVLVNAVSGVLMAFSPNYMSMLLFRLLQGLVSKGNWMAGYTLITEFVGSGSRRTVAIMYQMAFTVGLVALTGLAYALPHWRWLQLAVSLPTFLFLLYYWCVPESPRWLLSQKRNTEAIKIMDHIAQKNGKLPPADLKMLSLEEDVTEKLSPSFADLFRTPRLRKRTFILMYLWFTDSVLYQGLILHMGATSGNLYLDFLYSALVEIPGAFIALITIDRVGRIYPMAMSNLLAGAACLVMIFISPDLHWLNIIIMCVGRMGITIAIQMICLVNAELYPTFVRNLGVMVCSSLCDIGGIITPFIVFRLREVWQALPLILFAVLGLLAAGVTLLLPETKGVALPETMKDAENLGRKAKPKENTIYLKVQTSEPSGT
Put plainly: OCT1-dependent metformin uptake in OCT1-overexpressing HEK-293 cells. The format is cell-based.

In a further data set the target is T3, ABCB11/BSEP (Homo sapiens, UniProt O95342).
T3 construct: purchased Solvo Biotechnology (Budapest, Hungary); host or cells: HEK-293 cells
Put plainly: BSEP vesicular transport: ATP- and glyburide-sensitive taurocholate uptake into inverted HEK-293 membrane vesicles. The format is biochemical. The settings on record: taurocholate 2 µM, 37 °C, 10 min, HEK-293 vesicles.

In the next data set the test system is ABCG2/BCRP. Further details: method as in Telbisz et al., 2021. The settings on record: vesicular transporter assay, measured previously; ref Telbisz et al., 2021; cited from earlier work.
The conditions of data set [1]: Kaletra 400 mg lopinavir and 100 mg ritonavir in combination; cited from earlier work.
The next data set has as its target T4, ABCC3/MRP3 (Homo sapiens, UniProt O15438).
T4 construct: purchased Solvo Biotechnology (Budapest, Hungary); host or cells: HEK-293 cells
Description: MRP3 vesicular transport: ATP- and benzbromarone-sensitive CDCF uptake into inverted HEK-293 membrane vesicles. The format is biochemical.

The target of another data set is T5, ABCC2/MRP2 (Homo sapiens, UniProt Q92887).
T5 construct: made in house; host or cells: Sf9 insect cells (baculovirus)
Description: MRP2 vesicular transport: ATP-dependent CDCF uptake into inverted Sf9 membrane vesicles. The data set is classed as biochemical. The settings on record: CDCF 5 µM, 37 °C, 10 min, Sf9 vesicles.

Another data set concerns ABCB1/Pgp. Further details: method as in Telbisz et al., 2021. The settings on record: vesicular transporter assay, measured previously; ref Telbisz et al., 2021; cited from earlier work.
For the next data set, the target named is T6, ABCC4/MRP4 (Homo sapiens, UniProt O15439).
T6 construct: purchased Solvo Biotechnology (Budapest, Hungary); host or cells: HEK-293 cells
T6 sequence (O15439 1-1325): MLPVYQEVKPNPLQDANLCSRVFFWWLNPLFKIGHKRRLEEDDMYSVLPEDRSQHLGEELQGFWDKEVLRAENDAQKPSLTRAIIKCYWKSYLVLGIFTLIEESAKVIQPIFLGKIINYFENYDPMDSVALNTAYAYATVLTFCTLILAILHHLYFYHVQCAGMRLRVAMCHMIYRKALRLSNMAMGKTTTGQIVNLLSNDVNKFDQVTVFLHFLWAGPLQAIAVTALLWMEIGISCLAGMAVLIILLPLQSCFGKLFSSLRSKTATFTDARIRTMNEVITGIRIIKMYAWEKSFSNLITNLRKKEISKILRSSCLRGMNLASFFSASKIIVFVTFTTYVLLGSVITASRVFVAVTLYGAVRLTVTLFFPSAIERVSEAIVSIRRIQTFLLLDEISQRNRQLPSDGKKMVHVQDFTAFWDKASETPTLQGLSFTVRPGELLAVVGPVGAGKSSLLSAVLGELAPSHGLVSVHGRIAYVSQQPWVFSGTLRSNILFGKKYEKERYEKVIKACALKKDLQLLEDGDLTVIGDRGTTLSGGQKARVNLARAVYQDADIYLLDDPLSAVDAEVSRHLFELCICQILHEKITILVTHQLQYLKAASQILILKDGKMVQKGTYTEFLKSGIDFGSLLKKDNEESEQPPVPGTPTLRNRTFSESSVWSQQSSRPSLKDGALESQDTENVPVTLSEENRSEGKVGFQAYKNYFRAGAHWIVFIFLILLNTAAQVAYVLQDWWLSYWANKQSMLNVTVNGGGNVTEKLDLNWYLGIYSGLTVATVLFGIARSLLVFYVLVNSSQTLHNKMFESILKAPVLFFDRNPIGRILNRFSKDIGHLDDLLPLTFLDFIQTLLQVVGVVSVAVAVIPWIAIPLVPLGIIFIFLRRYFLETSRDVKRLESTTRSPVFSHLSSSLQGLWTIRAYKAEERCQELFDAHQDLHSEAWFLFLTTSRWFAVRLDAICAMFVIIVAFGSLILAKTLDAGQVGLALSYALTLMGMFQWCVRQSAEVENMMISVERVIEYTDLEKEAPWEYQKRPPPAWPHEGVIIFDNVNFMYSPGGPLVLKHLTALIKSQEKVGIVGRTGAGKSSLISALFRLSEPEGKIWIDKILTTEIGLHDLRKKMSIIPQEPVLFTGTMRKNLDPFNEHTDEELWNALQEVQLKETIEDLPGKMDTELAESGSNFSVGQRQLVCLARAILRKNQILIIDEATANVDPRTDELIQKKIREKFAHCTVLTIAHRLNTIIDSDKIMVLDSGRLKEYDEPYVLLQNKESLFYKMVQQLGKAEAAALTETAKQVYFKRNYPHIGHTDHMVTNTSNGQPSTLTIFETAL
Put plainly: MRP4 vesicular transport: ATP-dependent DHEAS uptake into inverted HEK-293 membrane vesicles. The settings on record: DHEAS 0.5 µM, 32 °C, […], HEK-293 vesicles. The data set is classed as biochemical.

T5 sequence (Q92887 whole entry): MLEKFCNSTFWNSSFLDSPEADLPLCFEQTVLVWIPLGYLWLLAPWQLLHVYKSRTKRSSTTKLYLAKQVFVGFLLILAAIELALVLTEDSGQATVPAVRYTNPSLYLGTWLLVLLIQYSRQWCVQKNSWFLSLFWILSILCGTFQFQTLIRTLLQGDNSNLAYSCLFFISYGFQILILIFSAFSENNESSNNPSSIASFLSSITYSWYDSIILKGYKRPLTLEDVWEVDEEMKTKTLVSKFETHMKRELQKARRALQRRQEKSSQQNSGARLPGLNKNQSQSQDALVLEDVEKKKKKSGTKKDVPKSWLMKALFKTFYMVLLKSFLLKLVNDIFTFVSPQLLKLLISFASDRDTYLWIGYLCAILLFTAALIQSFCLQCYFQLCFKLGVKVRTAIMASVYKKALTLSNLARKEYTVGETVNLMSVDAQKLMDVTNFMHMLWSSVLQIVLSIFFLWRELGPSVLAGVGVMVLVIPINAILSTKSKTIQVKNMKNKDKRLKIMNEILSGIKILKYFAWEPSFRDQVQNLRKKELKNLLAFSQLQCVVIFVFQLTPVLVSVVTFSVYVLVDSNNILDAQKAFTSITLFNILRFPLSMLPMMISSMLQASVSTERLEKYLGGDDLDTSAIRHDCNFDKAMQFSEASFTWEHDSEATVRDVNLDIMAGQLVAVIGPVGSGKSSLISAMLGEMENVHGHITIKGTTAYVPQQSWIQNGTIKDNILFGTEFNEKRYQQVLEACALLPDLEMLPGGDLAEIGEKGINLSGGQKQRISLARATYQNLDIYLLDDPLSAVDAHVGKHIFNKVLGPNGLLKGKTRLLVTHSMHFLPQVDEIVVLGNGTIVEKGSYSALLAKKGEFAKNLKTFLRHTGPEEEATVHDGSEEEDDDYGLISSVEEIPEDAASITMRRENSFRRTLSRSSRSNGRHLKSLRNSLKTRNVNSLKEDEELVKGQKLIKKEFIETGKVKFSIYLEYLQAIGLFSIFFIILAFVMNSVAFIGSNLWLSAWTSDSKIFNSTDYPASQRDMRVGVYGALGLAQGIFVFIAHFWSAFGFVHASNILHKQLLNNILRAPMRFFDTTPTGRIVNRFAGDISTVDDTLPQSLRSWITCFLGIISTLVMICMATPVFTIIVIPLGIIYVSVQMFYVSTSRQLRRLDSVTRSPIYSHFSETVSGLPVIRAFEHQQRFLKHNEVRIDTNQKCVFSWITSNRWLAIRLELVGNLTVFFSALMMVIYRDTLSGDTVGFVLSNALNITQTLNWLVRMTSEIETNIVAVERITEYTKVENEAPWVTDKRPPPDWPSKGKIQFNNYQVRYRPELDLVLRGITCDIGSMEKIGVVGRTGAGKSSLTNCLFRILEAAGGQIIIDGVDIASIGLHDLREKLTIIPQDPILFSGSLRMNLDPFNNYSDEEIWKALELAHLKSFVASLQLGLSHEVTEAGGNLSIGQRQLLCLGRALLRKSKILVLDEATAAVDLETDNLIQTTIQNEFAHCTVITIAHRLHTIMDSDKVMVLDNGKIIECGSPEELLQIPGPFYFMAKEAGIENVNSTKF
T4 sequence (O15438 whole entry): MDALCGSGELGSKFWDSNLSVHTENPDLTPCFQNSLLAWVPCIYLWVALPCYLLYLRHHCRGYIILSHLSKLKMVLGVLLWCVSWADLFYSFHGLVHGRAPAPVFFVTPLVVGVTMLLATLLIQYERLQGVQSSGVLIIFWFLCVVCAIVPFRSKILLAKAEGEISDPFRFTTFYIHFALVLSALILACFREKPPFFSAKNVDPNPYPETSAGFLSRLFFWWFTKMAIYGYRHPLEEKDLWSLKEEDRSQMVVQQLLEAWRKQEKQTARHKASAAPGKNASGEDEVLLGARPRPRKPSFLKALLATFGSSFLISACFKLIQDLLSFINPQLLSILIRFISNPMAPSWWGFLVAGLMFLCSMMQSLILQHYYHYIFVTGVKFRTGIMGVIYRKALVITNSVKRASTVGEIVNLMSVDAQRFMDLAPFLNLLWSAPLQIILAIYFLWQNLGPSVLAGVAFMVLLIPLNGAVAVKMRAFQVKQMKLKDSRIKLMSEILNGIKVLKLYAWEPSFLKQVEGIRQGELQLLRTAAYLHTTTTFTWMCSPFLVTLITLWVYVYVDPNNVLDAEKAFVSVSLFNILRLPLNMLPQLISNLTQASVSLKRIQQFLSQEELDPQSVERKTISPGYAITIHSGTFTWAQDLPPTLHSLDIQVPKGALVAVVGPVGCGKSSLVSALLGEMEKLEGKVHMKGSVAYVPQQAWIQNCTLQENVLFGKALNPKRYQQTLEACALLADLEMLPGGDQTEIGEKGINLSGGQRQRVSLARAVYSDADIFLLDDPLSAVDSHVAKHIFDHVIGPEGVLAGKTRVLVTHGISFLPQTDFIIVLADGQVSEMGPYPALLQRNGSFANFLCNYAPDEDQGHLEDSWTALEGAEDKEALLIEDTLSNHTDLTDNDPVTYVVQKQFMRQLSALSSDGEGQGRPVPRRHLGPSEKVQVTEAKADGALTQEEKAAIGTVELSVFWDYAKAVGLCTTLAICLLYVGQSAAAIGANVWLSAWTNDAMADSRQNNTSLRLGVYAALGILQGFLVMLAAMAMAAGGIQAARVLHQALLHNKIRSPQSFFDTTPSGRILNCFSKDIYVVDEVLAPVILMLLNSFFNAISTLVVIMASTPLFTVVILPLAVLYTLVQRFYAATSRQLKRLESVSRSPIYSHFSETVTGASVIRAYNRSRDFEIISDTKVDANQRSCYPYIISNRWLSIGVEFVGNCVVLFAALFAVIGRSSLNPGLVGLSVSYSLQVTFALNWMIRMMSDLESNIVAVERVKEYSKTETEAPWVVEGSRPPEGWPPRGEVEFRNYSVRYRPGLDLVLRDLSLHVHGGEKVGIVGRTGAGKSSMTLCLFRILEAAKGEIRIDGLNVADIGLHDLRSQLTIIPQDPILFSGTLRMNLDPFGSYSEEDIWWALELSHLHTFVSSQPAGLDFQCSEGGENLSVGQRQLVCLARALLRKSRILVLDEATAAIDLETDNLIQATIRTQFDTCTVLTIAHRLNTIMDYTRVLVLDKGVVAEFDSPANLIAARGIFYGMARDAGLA
T3 sequence (O95342 whole entry): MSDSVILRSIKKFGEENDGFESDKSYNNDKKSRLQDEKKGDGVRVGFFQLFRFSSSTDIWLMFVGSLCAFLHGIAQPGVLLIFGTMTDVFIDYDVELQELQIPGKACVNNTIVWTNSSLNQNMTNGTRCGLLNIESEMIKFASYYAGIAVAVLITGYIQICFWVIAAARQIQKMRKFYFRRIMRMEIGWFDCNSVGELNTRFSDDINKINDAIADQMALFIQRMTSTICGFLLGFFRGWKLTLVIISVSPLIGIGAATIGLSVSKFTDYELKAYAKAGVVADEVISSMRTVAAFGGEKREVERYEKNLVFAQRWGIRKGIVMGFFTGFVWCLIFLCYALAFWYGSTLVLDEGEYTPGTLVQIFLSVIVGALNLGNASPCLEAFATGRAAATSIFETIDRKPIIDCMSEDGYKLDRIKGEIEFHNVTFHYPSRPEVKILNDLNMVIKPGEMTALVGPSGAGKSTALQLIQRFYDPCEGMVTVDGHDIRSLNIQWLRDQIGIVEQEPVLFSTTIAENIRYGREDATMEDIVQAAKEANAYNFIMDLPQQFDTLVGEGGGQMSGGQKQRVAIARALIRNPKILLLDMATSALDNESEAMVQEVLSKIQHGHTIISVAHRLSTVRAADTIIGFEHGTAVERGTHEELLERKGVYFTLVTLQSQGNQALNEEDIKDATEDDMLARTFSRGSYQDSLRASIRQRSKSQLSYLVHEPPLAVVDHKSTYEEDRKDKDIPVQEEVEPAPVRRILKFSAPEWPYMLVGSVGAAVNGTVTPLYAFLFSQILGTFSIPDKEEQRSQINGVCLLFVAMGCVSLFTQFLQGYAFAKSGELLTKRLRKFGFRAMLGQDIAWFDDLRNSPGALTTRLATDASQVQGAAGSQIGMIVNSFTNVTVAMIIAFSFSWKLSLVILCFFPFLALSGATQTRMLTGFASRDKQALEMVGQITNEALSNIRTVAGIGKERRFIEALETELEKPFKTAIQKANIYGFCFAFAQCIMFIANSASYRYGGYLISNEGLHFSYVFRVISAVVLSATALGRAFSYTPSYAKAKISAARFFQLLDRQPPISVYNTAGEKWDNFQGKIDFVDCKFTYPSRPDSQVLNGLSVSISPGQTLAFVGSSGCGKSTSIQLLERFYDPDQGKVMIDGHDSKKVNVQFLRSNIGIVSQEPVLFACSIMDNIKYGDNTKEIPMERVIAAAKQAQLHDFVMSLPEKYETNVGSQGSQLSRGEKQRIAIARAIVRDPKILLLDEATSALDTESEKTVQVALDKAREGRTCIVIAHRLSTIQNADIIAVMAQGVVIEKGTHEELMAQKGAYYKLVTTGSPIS

For `CC(C)c1nc(CN(C)C(=O)N[C@H](C(=O)N[C@@H](Cc2ccccc2)C[C@H](O)[C@H](Cc2ccccc2)NC(=O)OCc2cncs2)C(C)C)cs1` [RIT, ritonavir], the “MATE1/SLC47A1 Type of effect” value on MATE1/SLC47A1 is “strong inhibitory action and inh”. Also, the “OCT1/SLC22A1 Type of effect” value on OCT1/SLC22A1 (metformin 10 µM, 5 min, 37 °C, HEK-293 cells) was “strong inhibitory effect and inh”. For the same compound, on OCT1/SLC22A1 (metformin uptake), the “concentration of strong inhibitory effect on OCT1” value is “below 10 µM”. The “ABCB11/BSEP Type of effect” value on ABCB11/BSEP was “strongly inhibited TC transport at low concentrations and inh”. For the same compound, in the data set with ABCG2/BCRP, the “ABCG2/BCRP type of effect” value was “inh”. The “peak plasma concentrations in vivo” value in data set [1] was 1 to 1.73 µM. Besides, at ABCC3/MRP3 (CDCF 5 µM, 37 °C, 10 min, HEK-293 vesicles), the “ABCC3/MRP3 Type of effect” value was “inh”. For the same compound, the “concentration at which MRP3 transport is inhibited” value at ABCC3/MRP3 (CDCF uptake) is recorded as “lower than 10 µM”. The “ABCC2/MRP2 Type of effect” value at ABCC2/MRP2 was “did not inhibit but rather increased the probe substrate transport at high concentrations; also recorded: Increase”. The “ABCB1/Pgp Type of effect” value in the data set on ABCB1/Pgp is “inh”. Moreover, at ABCC4/MRP4, the “ABCC4/MRP4 Type of effect” value is on record as “No effect”.
